This note sets out measurements from patent US11472843B2, “Malacidins and methods of use” (The Rockefeller University, priority 2017, dated 2022).

In one experiment the test system is S. aureus NRS100. The experiment in a line: MIC assay, S. aureus NRS100. In kind it is cell-based, Staphylococcus aureus. The settings on record: β-lactams. On the procedure: (§1) MIC assays were performed in duplicate in 96-well microtiter plates on the basis of the protocol recommended by the Clinical and Laboratory Standards Institute (Cockerill, 2012, Clinical and Laboratory Standards Institute). All presented data are the average of at least three independent assays. Stock solutions of malacidin or daptomycin (2 mg ml^−1 in H2O) were added to the first well in a row and serially diluted (twofold per transfer) across the microtiter plate. CaCl2 was supplemented to media at a final concentration of 15 mM and fetal bovine serum (ATCC) was added to media (1:10) to test the effect of serum. Overnight cultures of bacteria were diluted 5,000-fold, and 50 μl was used as an inoculum in each well. MIC values were determined by visual inspection after 18 h incubation (30° C., static growth). For the enhanced calcium titration experiments, standard MIC assays were performed with methicillin-resistant Staphylococcus aureus (MRSA) PFGE strain type USA300 in media supplemented with CaCl2 at: 25.0, 18.8, 14.1, 7.03, 3.52, 2.50, 1.76, 0.880, 0.440, 0.250 and 0 mM. To assess the effects of monovalent and divalent cations on malacidin activity, standard MIC assays were performed with MRSA USA300 in media supplemented with 15 mM CaCl2, MgCl2, MnCl2, ZnCl2, SrCl2, NaCl and KCl. To evaluate the effects of pulmonary surfactants on activity against a community-acquired pneumonia-causing pathogen, standard MIC assays were performed with Streptococcus pneumoniae TCH8431 in media supplemented with both 15 mM […] and Survanta (beractant) at a final concentration of 5, 1, 0.5, 0.25 or 0% (volume/volume (v/v) percent).

Experiment [1] relates to Pseudomonas aeruginosa PAO1. The experiment in a line: MIC assay, P. aeruginosa. Type of experiment: cell-based. Here is the method: as §1
Experiment [2] relates to Methicillin-resistant Staphylococcus aureus strain MW2. The experiment in a line: Rat cutaneous wound infection model. In kind it is in vivo, Sprague Dawley rats. The settings on record: topical, 0.5 mg daily in 25 mM CaCl2. Here is the method: Methicillin-resistant Staphylococcus aureus strain MW2 was grown in Mueller Hinton broth at 37° C. with shaking overnight. The culture was centrifuged, supernatant aspirated and the bacteria were gently washed once in sterile saline. The optical density was determined at 600 nm. The bacterial suspension was diluted to provide a challenge inoculum of approximately 500 CFU per wound in a volume of 0.05 ml in sterile 0.9% NaCl. The inoculum count was verified by viable counts on Mannitol Salt Agar plates spread with proper dilutions of the inoculum and incubated at 37° C. for 24-48 h. For the wound infection model, 8-week-old male (˜200 g) Sprague Dawley rats were given two wounds each. Two rats were used at each time point (day 1 and day 3) for each treatment group for a total of 4 rats (8 wounds) per drug. This sample size was statistically calculated on the basis of previous in-house wound burden studies comparing vehicle-treated groups with antibiotic controls. Rats were randomly selected into the treatment groups. […] At 1 day and 3 days post infection, the rats were humanely euthanized and wounds were excised and assessed for bacterial burdens by plating on MSA. […] Abnormal clinical signs were recorded if observed.

The test system of another experiment is MRSA USA300. The experiment in a line: Membrane depolarization assay (DiBAC4). Type of experiment: cell-based, Staphylococcus aureus. The settings on record: S. aureus cells pretreated with DiBAC4; 20 μg ml^−1. On the procedure:
The effects of malacidin on membrane integrity was assessed using SYTOX green. In brief, single colonies of MRSA USA300 were grown in LB media with and without 15 mM CaCl2 to an OD600 nm of 0.35. Nine hundred microlitres of cells were mixed with 100 μL of 17 μM SYTOX green dye (Thermo Fisher). The resulting mixture was incubated for 5 min at 22° C., and then distributed to a microtiter plate at 50 μl per well. An initial reading of fluorescence pre-antibiotic addition was measured at excitation and emission wavelengths of 488 nm and 523 nm, respectively. Fifty microlitres of antibiotics was added to respective wells at a final concentration of 20 μg ml^−1. Measurements were immediately collected for 10 min. To assess the effects of malacidin on membrane depolarization, similar assays were set up using the membrane potential probe, DiBAC4 (bis-(1,3-dibutylbarbituric acid)trimethine oxonol). Single colonies of MRSA USA300 were grown in LB media with and without 15 mM CaCl2 to an OD600 nm of 0.35. Nine hundred microlitres of cells were mixed with 100 μl of 20 μg ml DiBAC4dye (Thermo Fisher). The resulting mixture was incubated for 5 min at 22° C., and then distributed to a microtiter plate at 50 μl per well. An initial reading of fluorescence pre-antibiotic addition was measured at excitation and emission wavelengths of 492 nm and 515 nm, respectively. […]

The subject of experiment [3] is UDP-MurNAc-pentapeptide in MRSA USA300. The experiment in a line: UDP-MurNAc-pentapeptide accumulation assay. In kind it is cell-based, Staphylococcus aureus. The settings on record: 10 μg ml^−1, 60 min, UPLC-MS. On the procedure: The intracellular accumulation of the cell wall precursor UDP-MurNAc-pentapeptide after treatment of MRSA USA300 with malacidin was assessed as previously described (Schneider et al., […], Antimicrob Agents Ch 53:1610-18). In brief, single colonies of MRSA USA300 were grown in LB media with and without 15 mM CaCl2 to an OD600 nm of 0.6. […] of cells and medium were incubated with a final concentration of 130 μg ml^−1 chloramphenicol for 15 min at 37° C. Antibiotics to be assayed were added at 10 μg ml^−1 and incubated for 60 min at 37° C. Vancomycin, known to form a complex with lipid II, was used as a positive control. Cells were collected by centrifugation, and resuspended in 30 μl dH2O and incubated in boiling water for 15 min. The cell extract was then centrifuged at 14,000 g. Supernatant was analysed for UDP-linked cell wall precursors by a UPLC-MS system. Experiments were performed with biological replicates.

A value given as a limit tells only on which side of the number the result lay.

Usually MIC stands for the smallest concentration in the dilution series that meets the test's criterion for growth inhibition. Higher therefore signals a less susceptible organism.

Regarding malacidin A, the MIC in the experiment on S. aureus NRS100 (S. aureus NRS100, tetracycline, 15 mM CaCl2) was 0.2-0.8 μg m1^−1; in the experiment on S. aureus NRS100 (Staphylococcus aureus NRS100, Tetracycline), 0.2 to 0.8 µg/mL; in experiment [1] it was over 100 mg/L. For the same substance, the “Bacterial burden in the wounds” value in experiment [2] (24 hours post infection) and in experiment [2] (72 hours post infection) was “no observed bacterial burdens” in each case. Besides, the “Loss of membrane potential (DiBAC4)” value in the experiment on MRSA USA300 is on record as “no significant loss of membrane potential”. The “Accumulation of cell wall intermediate UDP-MurNAc-pentapeptide” value in experiment [3] is “accumulation of the cell wall intermediate UDP-MurNAc-pentapeptide”.
